Ends that are not written are not given here. * marks the point of attachment. Biotin = O=C1N[C@H]2[C@H](CS[C@H]2CCCCC(=O)*)N1
Assays:
Assay type in all cases: binding, human
[1] = test system: antibodies in antisera from HIV-1 infected persons; assay: ELISA with HIV-1 antibody-positive sera (biotinylated peptides on streptavidin- or avidin-coated plates, unbiotinylated peptides coated directly); details: Table 16
Protocol: (§1) Where peptides were to be coated directly, stock solutions of the peptides were diluted in sodium carbonate buffer, pH 9.6 and used to coat polystyrene microtiter plates at a peptide concentration of 2 to 5 micrograms per milliliter for 1 hour at 37° C.
(§2) In cases where biotinylated peptides were to be evaluated, plates were first coated with streptavidin in sodium carbonate buffer, pH 9.6 at a concentration of 3 micrograms per milliliter for 1 hour at 37° C. The plates were then washed to remove excess, unbound protein. A working solution of the biotinylated peptide at 1 microgram per milliliter in sodium carbonate buffer was then added to the wells of the microtiter plate and incubated for 1 hours at 37° C.
(§3) Once the plates had been coated with antigen, any remaining free binding sites on the plastic were blocked with casein. After washing, a dilution of the appropriate antisera, usually 1:100, was added to the wells of the plates and incubated for 1 hour at 37° C.
(§4) After washing to remove unbound material, specific antibody binding was detected by incubating the plates with goat anti-human immunoglobulin antibodies conjugated to the enzyme horseradish peroxidase. Following removal of unbound conjugate by washing, a solution containing H2O2 and 3,3′,5,5′-tetramethylbenzidine was added.
(§5) Reactions were stopped after a suitable interval by addition of sulfuric acid. […] Absorbance measurements were made at a wavelength of 450 nanometers and all data are expressed as an optical density value at this wavelength.
Experiments were performed to evaluate antibody recognition of short, 10 amino acid-long, N-acetylated peptides corresponding to other contained within the transmembrane proteins of HIV-1 and HIV-2. […] The peptides used for the comparison were as follows:
Antibody binding to these peptides was compared to antibody binding to the unibiotinylated peptides which were coated directly onto microtiter plates.
In order to evaluate antibody recognition of these two peptides, the peptides were bound individually to streptavidin-coated microtiter plates and tested using a panel of antisera from HIV-1 seropositive donors.
(§6) To determine how well biotinylated peptides would function in a mixture when bound to streptavidin- or avidin-coated plates, two mixtures were made of the N-terminally biotinylated versions of the HIV-1 peptides TM-HIV-1 (hereabove referred to as 1a.1) and V3-nm (hereabove referred to as 1b.4), the HIV-2 peptide TM-HIV-2 (hereabove referred to as 2a), and the hepatitis C virus peptides II, IX, and XVIII. Mixture A contained each of the six biotinylated peptides at a concentration of 1 microgram per milliliter (6 micrograms per milliliter peptide, total) while in mixture B, each peptide was present at a concentration of 0.1 microgram per milliliter (0.6 microgram per milliliter peptide, total). The individual peptides were coated at a concentration of 1 microgram per milliliter. For purposes of comparison, mixtures A and B were also coated directly onto the wells of a microtiter plate. Samples from HIV-1, HIV-2, and HCV-seropositive donors were tested and compared to sera from seronegative blood donors. A cut-off absorbance value of 0.250 was used to determine whether a reaction was positive or negative. Absorbance values equal or greater than 0.250 were considered positive while absorbance values below this value were considered negative.
A spacer consisting of two glycine residues was added to the amino terminus.

[2] = ELISA with seronegative / negative control sera (specificity)
Protocol: as §1, §2, §3, §4, §5
(§7) Unbiotinylated HCV peptide I was coated directly onto the wells of a polystyrene ELISA plate at a concentration of 3 micrograms per milliliter in sodium carbonate buffer, pH 9.6. Biotinylated HCV peptide I was bound to streptavidin-coated wells using a stock solution containing the peptide at a concentration of 1 microgram per milliliter. The resulting plates were then incubated in parallel with a panel of sera from HCV-seropositive donors. […] Two of the sera (8326 and 8244) recognize the biotinylated version of this peptide far better than the unbiotinylated version. The specificity of the antibody reaction is also reflected by the low optical density values obtained for 5 serum samples from uninfected donors (F88, F89, F76, F136, and F6).
as §6

[3] = test system: antibodies in sera from HCV-seropositive donors; assay: ELISA with HCV antibody-positive sera (biotinylated peptides on streptavidin- or avidin-coated plates, unbiotinylated peptides coated directly); details: for PEPTIDE ELISA (O.D.): Table 12, biotinylated 20-mers
Protocol: as §1, §2, §3, §4, §5
The unbiotinylated peptides were adsorbed onto the wells of polystyrene microtiter plates at a concentration of 3 micrograms per milliliter.
The biotinylated peptides were bound at a concentration of 1 microgram per milliliter to streptavidin-coated microtiter plates. Sera known to contain antibodies to these peptides were used for the evaluation and were tested at a 20-fold dilution.
To investigate further the enhanced antibody recognition of biotinylated HCV peptides bound to streptavidin or avidin as compared to direct adsorption on plastic, the influence of peptide coating concentration was investigated. Three peptides (HCV peptides II, XI, and XVI) were coated in concentrations ranging from 10 nanograms per milliliter to 3 micrograms per milliliter in a volume of 200 microliters per microtiter plate well. For direct coating, the unbiotinylated versions of these peptides were used. The biotinylated versions of these peptides were used to coat wells to which streptavidin had previously been adsorbed. Sera known to contain antibodies to these peptides were used at a dilution of 1 to 100 to evaluate the magnitude of antibody binding.
as §7
To determine how well biotinylated peptides would function in a mixture when bound to streptavidin- or avidin-coated plates, two mixtures were made of the N-terminally biotinylated versions of the HIV-1 peptides TM-HIV-1 (hereabove referred to as 1a.1) and V3-nm (hereabove referred to as 1b.4), the HIV-2 peptide TM-HIV-2 (hereabove referred to as 2a), and the hepatitis C virus peptides II, IX, and XVIII. […]

Substance: NNTRRGIHMGWGRTFYATGEIIG [Peptide V3-368, two glycine residues at the amino terminus, N-terminal glycine biotinylated]
- number borderline ([1]; African sera, 45 tested): 9
- number negative ([1]; African sera, 45 tested): 31
- number positive ([1]; African sera, 45 tested): 5
- percent borderline ([1]; African sera, 45 tested): 20%
- percent negative ([1]; African sera, 45 tested): 69%
- percent positive ([1]; African sera, 45 tested): 11%
- number borderline ([1]; Brazilian sera, 36 tested): 15
- number negative ([1]; Brazilian sera, 36 tested): 5
- number positive ([1]; Brazilian sera, 36 tested): 16
- percent borderline ([1]; Brazilian sera, 36 tested): 41.7%
- percent negative ([1]; Brazilian sera, 36 tested): 13.9%
- percent positive ([1]; Brazilian sera, 36 tested): 44.4%
- number borderline ([1]; European sera, 36 tested): 20
- number negative ([1]; European sera, 36 tested): 12
- number positive ([1]; European sera, 36 tested): 4
- percent borderline ([1]; European sera, 36 tested): 56%
- percent negative ([1]; European sera, 36 tested): 33%
- percent positive ([1]; European sera, 36 tested): 11%

Substance: H2N-Met-Ser-Thr-Ile-Pro-Lys-Pro-Gln-Arg-Lys-Thr-Lys-Arg-Asn-Thr-Asn-Arg-Arg-Pro-Gln-Gly-Gly-Lys (Bio)-CONH2 (H-MSTIPKPQRKTKRNTNRRPQGGK(Biotin)-NH2; SMILES CC[C@H](C)[C@H](NC(=O)[C@@H](NC(=O)[C@H](CO)NC(=O)[C@@H](N)CCSC)[C@@H](C)O)C(=O)N1CCC[C@H]1C(=O)N[C@@H](CCCCN)C(=O)N1CCC[C@H]1C(=O)N[C@@H](CCC(N)=O)C(=O)N[C@@H](CCCNC(=N)N)C(=O)N[C@@H](CCCCN)C(=O)N[C@H](C(=O)N[C@@H](CCCCN)C(=O)N[C@@H](CCCNC(=N)N)C(=O)N[C@@H](CC(N)=O)C(=O)N[C@H](C(=O)N[C@@H](CC(N)=O)C(=O)N[C@@H](CCCNC(=N)N)C(=O)N[C@@H](CCCNC(=N)N)C(=O)N1CCC[C@H]1C(=O)N[C@@H](CCC(N)=O)C(=O)NCC(=O)NCC(=O)N[C@@H](CCCCNC(=O)CCCC[C@@H]1SC[C@@H]2NC(=O)N[C@@H]21)C(N)=O)[C@@H](C)O)[C@@H](C)O) [HCV peptide I carboxy-biotinylated]
- optical density (450 nm) ([2]; Table 7, serum F8, HCV antibody-negative): 0.000
- optical density (450 nm) ([2]; Table 7, serum F76, HCV antibody-negative): 0.022
- optical density (450 nm) ([2]; Table 7, serum F88, HCV antibody-negative): 0.026
- optical density (450 nm) ([2]; Table 7, serum F89, HCV antibody-negative): 0.001
- optical density (450 nm) ([2]; Table 7, serum F136, HCV antibody-negative): 0.002
- optical density (450 nm) ([3]; Table 7, serum 6378, HCV antibody-positive): 2.531
- optical density (450 nm) ([3]; Table 7, serum 8242, HCV antibody-positive): 2.389
- optical density (450 nm) ([3]; Table 7, serum 8243, HCV antibody-positive): 2.541
- optical density (450 nm) ([3]; Table 7, serum 8244, HCV antibody-positive): 1.399
- optical density (450 nm) ([3]; Table 7, serum 8248, HCV antibody-positive): 2.493
- optical density (450 nm) ([3]; Table 7, serum 8316, HCV antibody-positive): 2.541
- optical density (450 nm) ([3]; Table 7, serum 8318, HCV antibody-positive): 2.404
- optical density (450 nm) ([3]; Table 7, serum 8320, HCV antibody-positive): 2.762
- optical density (450 nm) ([3]; Table 7, serum 8326, HCV antibody-positive): 1.775
- optical density (450 nm) ([3]; Table 7, serum 8329, HCV antibody-positive): 2.672
- optical density (450 nm) ([3]; Table 7, serum 8330, HCV antibody-positive): 2.651
- optical density (450 nm) ([3]; Table 7, serum 8333, HCV antibody-positive): 2.545
- optical density (450 nm) ([3]; Table 7, serum 8334, HCV antibody-positive): 2.549
- optical density (450 nm) ([3]; Table 7, serum 8336, HCV antibody-positive): 2.016
- optical density (450 nm) ([3]; Table 7, serum 8344, HCV antibody-positive): 2.010
- optical density (450 nm) ([3]; Table 7, serum 8364, HCV antibody-positive): 2.705
- optical density (450 nm) ([3]; Table 7, serum 8374, HCV antibody-positive): 2.151
- optical density (450 nm) ([3]; Table 7, serum 8387, HCV antibody-positive): 2.628

Substance: Leu-Arg-Lys-Ser-Arg-Arg-Phe-Ala-Gln-Ala-Leu-Pro-Val-Trp-Ala-Arg-Pro-Asp-Tyr-Asn [Peptide XVI] (LRKSRRFAQALPVWARPDYN; printed: Leu-Arg-Lys-Ser-Arg-Arg-Phe-Ala-Gln-Ala-Leu-Pro-Val-Trp-Ala-Arg-Pro-Asp-Tyr-Asn)
- optical density (450 nm) ([2]; Table 4B, negative serum): 0.067
- optical density (450 nm) ([3]; Table 4B, serum 1, 20-fold dilution): 2.435
- optical density (450 nm) ([3]; Table 4B, serum 2, 20-fold dilution): 1.239
- optical density (450 nm) ([3]; Table 4B, serum 6, 20-fold dilution): 1.595
- optical density (450 nm) ([3]; Table 4B, serum 8, 20-fold dilution): 1.599
- optical density (450 nm) ([3]; Table 4B, serum 10, 20-fold dilution): 2.847
- optical density (450 nm) ([3]; Table 4B, serum 26, 20-fold dilution): 1.522
- optical density (450 nm) ([3]; Table 4B, serum 83, 20-fold dilution): 2.221
- optical density (450 nm) ([3]; Table 4B, serum 88, 20-fold dilution): 2.519
- optical density (450 nm) ([3]; Table 4B, serum 89, 20-fold dilution): 1.530
- optical density (450 nm) ([3]; Table 4B, serum 91, 20-fold dilution): 2.169
- optical density (450 nm) ([3]; Table 4B, serum 95, 20-fold dilution): 1.484
- optical density (450 nm) ([3]; Table 4B, serum 99, 20-fold dilution): 2.045
- optical density (450 nm) ([3]; Table 4B, serum 100, 20-fold dilution): 1.637
- optical density (450 nm) ([3]; Table 4B, serum 104, 20-fold dilution): 0.942
- optical density (450 nm) ([3]; Table 4B, serum 105, 20-fold dilution): 2.186
- optical density (450 nm) ([3]; Table 4B, serum 110, 20-fold dilution): 1.484
- optical density (450 nm) ([3]; Table 4B, serum 111, 20-fold dilution): 1.465
- optical density (450 nm) ([3]; Table 4B, serum 112, 20-fold dilution): 1.084
- optical density (450 nm) ([3]; Table 4B, serum 113, 20-fold dilution): 2.535
- optical density (450 nm) ([3]; Table 4B, serum 116, 20-fold dilution): 1.918
- optical density (450 nm) ([3]; Table 4B, serum 120, 20-fold dilution): 2.332
- optical density (450 nm) ([3]; Table 4B, serum 266, 20-fold dilution): 2.262
- optical density (450 nm) ([3]; Table 4B, serum 8247, 20-fold dilution): 0.618
- optical density (450 nm) ([3]; Table 4B, serum 11476, 20-fold dilution): 2.197
- optical density (450 nm) ([3]; Table 4B, serum 24758, 20-fold dilution): 0.062
- PEPTIDE ELISA (O.D.) ([3]; serum 0843): 1.444
- PEPTIDE ELISA (O.D.) ([3]; serum 8240): 0.388
- PEPTIDE ELISA (O.D.) ([3]; serum 8241): 2.456
- PEPTIDE ELISA (O.D.) ([3]; serum 8242): 2.318
- PEPTIDE ELISA (O.D.) ([3]; serum 8332): 2.130
- PEPTIDE ELISA (O.D.) ([3]; serum 8339): 2.859
- PEPTIDE ELISA (O.D.) ([3]; serum 8350): 2.249
- PEPTIDE ELISA (O.D.) ([3]; serum 8377): 2.336
- PEPTIDE ELISA (O.D.) ([3]; serum 8378): 1.602
- PEPTIDE ELISA (O.D.) ([3]; serum 8388): 0.390

Substance: TRKTSERSQPRGRRQPIPKV
- optical density (450 nm) ([2]; Table 4E, negative serum): 0.047
- optical density (450 nm) ([3]; Table 4E, serum 8272, 20-fold dilution): 0.589
- optical density (450 nm) ([3]; Table 4E, serum 8273, 20-fold dilution): 0.294
- optical density (450 nm) ([3]; Table 4E, serum 8274, 20-fold dilution): 1.820
- optical density (450 nm) ([3]; Table 4E, serum 8275, 20-fold dilution): 1.728
- optical density (450 nm) ([3]; Table 4E, serum 8276, 20-fold dilution): 2.194
- optical density (450 nm) ([3]; Table 4E, serum 8277, 20-fold dilution): 0.770
- optical density (450 nm) ([3]; Table 4E, serum 8278, 20-fold dilution): 1.391
- optical density (450 nm) ([3]; Table 4E, serum 8284, 20-fold dilution): 0.040
